Results reported in article PMC8066157, “Bovine Viral Diarrhea Virus (BVDV): A Preliminary Study on Antiviral Properties of Some Aromatic and Medicinal Plants” (Pathogens, 2021).
Entries after “also recorded” stand apart in the source; their conditions may differ. Where two headings read alike, the source gives them in different places.

How the values were obtained:
[1] = system: BVDV; test: microbe, parasite or virus in culture; format: cell-based, bovine viral diarrhea virus (strain NADL); conditions: read-out: EC50 BVDV
[2] = Cytotoxicity in mock-infected MDBK cells (MTT); conditions: bovine (Bos taurus), mock-infected MDBK cells (Madin-Darby bovine kidney)
[3] = system: DENV-2; format: cell-based, dengue virus (DENV-2)
[4] = system: WNV; format: cell-based, west Nile virus
[5] = system: YFV; format: cell-based, yellow fever virus (strain 17-D)
[6] = system: BHK cells
[7] = system: MDBK cells; test: Cytotoxicity in mock-infected MDBK cells (MTT); conditions: for CC50: read-out: CC50 MDBK, mock-infected MDBK cells, MTT, pure compounds
[8] = in vitro; conditions: human
[9] = system: VV; format: cell-based, vaccinia virus
[10] = system: Vero-76 cells
[11] = system: BVDV; test: Virucidal assay against BVDV virions; set-up: species or system bovine viral diarrhea virus; conditions: 100 µM, 2 h, 4 and 37 °C
[12] = system: BVDV; format: cell-based, bovine viral diarrhea virus; conditions: 100, 20, 4, 0.8 µM
[13] = system: CV-B5; test: organism not typed; format: cell-based, coxsackie type B5; conditions: Vero 76, read-out: EC50 CV-B5
[14] = in vitro; conditions: monkey (Cercopithecus aethiops)
[15] = system: RSV; test: microbe, parasite or virus in culture; format: cell-based, human respiratory syncytial virus (strain A2); conditions: human respiratory syncytial virus, Vero 76, read-out: EC50 RSV
[16] = Bovine viral diarrhea virus isolates and strains, MDBK

## C=C1C2CCC(C2)C1(C)C (centres unmarked) [Camphene]
[1]; [16]
  EC50: > 100 µM
[2]
  CC50: > 100 µM

## C[C@@]1(O)[C@H](O)[C@@H](CO)O[C@H]1n1cnc2c(=O)[nH]c(N)nc21 [2′-C-Me-Guanosine]
[1]
  EC50: 1.6 ± 0.2 µM
[3]
  EC50: 0.3 µM
[4]
  EC50: 0.4 µM
[5]
  EC50: 1.2 µM
[6]
  CC50: 60 µM
[7]
  CC50: > 100 µM

## O=C1Nc2ccc(Cl)cc2[C@@](C#CC2CC2)(C(F)(F)F)O1 [Efavirenz]
[8]
  CC50: 40 µM

## COc1c(C)c2c(c(O)c1C/C=C(\C)CCC(=O)O)C(=O)OC2 [Mycophen.Ac.]
[9]
  EC50: 1.5 µM
[10]
  CC50: 20 µM

## CC12CCC(CC1=O)C2(C)C (centres unmarked) [Camphor]
[1]; [16]
  EC50: > 100 µM
[2]
  CC50: > 100 µM

## C/C1=C\CC/C(C)=C/CC(C)(C)/C=C/C1 [α-Humulene]
[1]
  EC50: 36 ± 0.5 µM
[11]
  Virucidal activity (BVDV titer of treated vs untreated virus): No significant differences
[12]
  Reduction of BVDV titer (yield reduction): dose-dependent reduction of virus titer; also recorded: reduce the viral BVDV titer in vitro assays in a dose-dependent manner
[7]; MDBK cells
  Cytotoxicity (in words): non-cytotoxic
[7]
  CC50: > 100 µM

## C=C1CC/C=C(\C)CC[C@@H]2[C@@H]1CC2(C)C [Trans-Caryophyllene]
[1]; [16]
  EC50: 90 ± 1 µM
[2]
  CC50: > 100 µM

## 2+β Thujone
[1]
  EC50: > 100 µM
[7]
  CC50: > 100 µM

## Cc1cc(CCCOc2c(C)cc(-c3noc(C(F)(F)F)n3)cc2C)on1 [Pleconaril]
[13]
  EC50: 0.005 µM
[14]
  CC50: > 100 µM

## CC12CCC(CC1)C(C)(C)O2 [1,8-Cineole]
[1]; [16]
  EC50: > 100 µM
[2]
  CC50: > 100 µM

## C=C(C)[C@H]1CC=C(C)CC1 [Limonene]
[1]
  EC50: > 100 µM
[7]
  CC50: > 100 µM

## C=C1CCC2CC1C2(C)C (stereo not drawn) [β-Pinene]
[1]; [16]
  EC50: > 100 µM
[2]
  CC50: > 100 µM

## O=c1cnn([C@@H]2O[C@H](CO)[C@@H](O)[C@H]2O)c(=O)[nH]1 [6-Aza-Uridine]
[15]
  EC50: 1 µM
[14]
  CC50: 4 µM
